Consider 2 molecules from PMC3276110 (ACS Medicinal Chemistry Letters, 2011).

This assay has as its system multidrug-resistant Dd2 P. falciparum parasites. Put plainly: growth inhibition assay. Format: cell-based. To be noted: Plasmodium falciparum, DD2, 72 h, read-out: Dd2 GI50, Dd2 intraerythrocytic parasites, 72 h, DAPI.

A value given as a limit tells only on which side of the number the result lay.

Consider `C[C@@H]1CN([C@@H](C)CO)C(=O)c2cc(NC(=O)Nc3ccccc3)ccc2O[C@@H](C)CCCCO[C@H]1CN(C)C(=O)OC(C)(C)C` [Compound 17], for which the 50% growth inhibitory concentration (GI50) was > 1.4 µM.
For `C[C@@H]1CN(CCO)C(=O)c2cc(NC(=O)Nc3ccccc3)ccc2O[C@@H](C)CCCCO[C@H]1CN(C)S(=O)(=O)c1ccc(F)cc1` [Compound 30], the GI50 is 0.63 µM.

The term GI50 denotes the concentration at which growth is held to half of that of the control.
